This test has as its target T1, Human TRPA1 (Homo sapiens, UniProt O75762).
T1 construct: expressed in transfected cells; host or cells: CHO cells
Briefly: 45Calcium uptake assay: inhibition of AITC induced cellular uptake of radioactive calcium. It counts as cell-based. The note with it: AITC (30 μM) induced 45Ca uptake, Human TRPA1 expressing CHO cells; for inhibition at 1 µM: read-out: Percentage inhibition at 1.0 μM; for inhibition at 10 µM: read-out: Percentage inhibition at 10.0 μM; for IC50: read-out: Human IC50 value (range). A digest of the protocol: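 CHO cells stably expressing human TRPA1 (~50,000/well) preincubated 10 min with compound (0.5% DMSO, medium with 0.1% BSA, 1.8 mM CaCl2), then 30 μM AITC plus 5 μCi/ml 45Ca2+ for 3 min. Lysate radioactivity counted by scintillation; IC50 by nonlinear regression of % maximal uptake.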

Bounds are passed on as bounds.

T1 sequence (O75762 whole entry): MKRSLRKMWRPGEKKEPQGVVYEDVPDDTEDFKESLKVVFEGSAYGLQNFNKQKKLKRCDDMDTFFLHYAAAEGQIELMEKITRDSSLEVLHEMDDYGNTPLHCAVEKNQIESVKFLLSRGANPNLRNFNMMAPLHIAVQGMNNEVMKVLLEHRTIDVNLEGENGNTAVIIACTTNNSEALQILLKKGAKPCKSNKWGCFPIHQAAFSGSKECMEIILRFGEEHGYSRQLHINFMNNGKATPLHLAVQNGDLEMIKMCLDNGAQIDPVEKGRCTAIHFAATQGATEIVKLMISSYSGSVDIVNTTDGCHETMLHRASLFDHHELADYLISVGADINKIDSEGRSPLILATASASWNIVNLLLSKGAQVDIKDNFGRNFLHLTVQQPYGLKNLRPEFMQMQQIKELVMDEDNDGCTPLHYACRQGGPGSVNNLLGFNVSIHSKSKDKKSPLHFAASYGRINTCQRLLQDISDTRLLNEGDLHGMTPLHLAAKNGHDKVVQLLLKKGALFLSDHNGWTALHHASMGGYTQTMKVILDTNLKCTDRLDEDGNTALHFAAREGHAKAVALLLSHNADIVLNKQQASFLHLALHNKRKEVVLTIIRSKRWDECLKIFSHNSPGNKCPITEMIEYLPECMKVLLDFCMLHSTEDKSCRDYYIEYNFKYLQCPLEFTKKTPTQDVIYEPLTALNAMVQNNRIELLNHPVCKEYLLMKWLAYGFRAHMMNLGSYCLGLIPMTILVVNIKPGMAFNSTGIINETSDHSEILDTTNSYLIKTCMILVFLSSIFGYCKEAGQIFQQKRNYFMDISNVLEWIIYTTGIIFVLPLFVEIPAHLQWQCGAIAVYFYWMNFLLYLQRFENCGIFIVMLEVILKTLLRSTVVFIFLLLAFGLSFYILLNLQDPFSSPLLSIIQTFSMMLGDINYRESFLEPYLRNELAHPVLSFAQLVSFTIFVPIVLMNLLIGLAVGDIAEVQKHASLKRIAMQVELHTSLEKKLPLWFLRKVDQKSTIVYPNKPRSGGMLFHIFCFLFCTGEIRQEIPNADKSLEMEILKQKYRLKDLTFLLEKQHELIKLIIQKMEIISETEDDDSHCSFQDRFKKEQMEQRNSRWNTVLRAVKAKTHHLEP

A word on the inhibition: it is how much of the control response was suppressed. As a reminder, the IC50 is the point on the concentration scale where inhibition reaches its midpoint. In the case of `Cn1c(=O)c2c(cnn2CC(=O)Nc2nc(-c3ccc(OCC(C)(C)C)c(Cl)c3)cs2)n(C)c1=O` [Example 70, N-{4-[3-Chloro-4-(2,2-dimethylpropoxy)phenyl]-1,3-thiazol-2-yl}-2-(4,6-dimethyl-5,7-dioxo-4,5,6,7-tetrahydro-1H-pyrazolo[4,3-d]pyrimidin-1-yl)acetamide], the IC50 is less than 50 nM. Also, where the note is “1.0 μM test compound”, the inhibition at 1 µM was 91.5%. Also, the inhibition at 10 µM (10.0 μM test compound) amounted to 98.8%.
For `Cn1c(=O)c2c(cnn2CC(=O)Nc2nc(-c3ccc(F)c(C(F)(F)F)c3F)cs2)n(C)c1=O` [Example 71, N-{4-[2,4-Difluoro-3-(trifluoromethyl)phenyl]-1,3-thiazol-2-yl}-2-(4,6-dimethyl-5,7-dioxo-4,5,6,7-tetrahydro-1H-pyrazolo[4,3-d]pyrimidin-1-yl)acetamide], in that order: 50 to 100 nM, 78.2% and 99.3%.
As to `Cn1c(=O)c2c(cnn2CC(=O)Nc2nc(-c3cc(F)c(OC(F)F)c(F)c3)cs2)n(C)c1=O` [Example 72, N-{4-[4-(Difluoromethoxy)-3,5-difluorophenyl]-1,3-thiazol-2-yl}-2-(4,6-dimethyl-5,7-dioxo-4,5,6,7-tetrahydro-1H-pyrazolo[4,3-d]pyrimidin-1-yl)acetamide], the IC50 is greater than 100 nM. The inhibition at 1 µM (1.0 μM test compound) worked out at 85.9%. Further, the inhibition at 10 µM (10.0 μM test compound) worked out at 97.7%.
In the case of `Cn1c(=O)c2c(cnn2CC(=O)Nc2nc(-c3cc(F)c(OCC(F)(F)F)c(F)c3)cs2)n(C)c1=O` [Example 73, N-{4-[3,5-Difluoro-4-(2,2,2-trifluoroethoxy)phenyl]-1,3-thiazol-2-yl}-2-(4,6-dimethyl-5,7-dioxo-4,5,6,7-tetrahydro-1H-pyrazolo[4,3-d]pyrimidin-1-yl)acetamide], the IC50 is less than 50 nM. Further, for the setting “1.0 μM test compound”, the inhibition at 1 µM was determined as 99.1%. Also, the inhibition at 10 µM (10.0 μM test compound) was 99.9%.
`CC(C)COc1c(F)cc(-c2csc(NC(=O)Cn3ncc4c3c(=O)n(C)c(=O)n4C)n2)cc1F` [Example 74, N-[4-(3,5-Difluoro-4-isobutoxyphenyl)-1,3-thiazol-2-yl]-2-(4,6-dimethyl-5,7-dioxo-4,5,6,7-tetrahydro-1H-pyrazolo[4,3-d]pyrimidin-1-yl)acetamide]: the IC50 is less than 50 nM. The inhibition at 1 µM (1.0 μM test compound) turned out to be 92.1%. The inhibition at 10 µM (10.0 μM test compound) stood at 98.8%.
Turning to `CC(C)COc1c(Cl)cc(-c2csc(NC(=O)Cn3ncc4c3c(=O)n(C)c(=O)n4C)n2)cc1Cl` [Example 75, N-[4-(3,5-Dichloro-4-isobutoxyphenyl)-1,3-thiazol-2-yl]-2-(4,6-dimethyl-5,7-dioxo-4,5,6,7-tetrahydro-1H-pyrazolo[4,3-d]pyrimidin-1-yl)acetamide], the IC50 is less than 50 nM. Besides, the inhibition at 1 µM (1.0 μM test compound) was 99.3%. Besides, for the setting “10.0 μM test compound”, the inhibition at 10 µM turned out to be 100%.
For `CC(C)CCOc1c(F)cc(-c2csc(NC(=O)Cn3ncc4c3c(=O)n(C)c(=O)n4C)n2)cc1F` [Example 76, N-{4-[3,5-Difluoro-4-(3-methylbutoxy)phenyl]-1,3-thiazol-2-yl}-2-(4,6-dimethyl-5,7-dioxo-4,5,6,7-tetrahydro-1H-pyrazolo[4,3-d]pyrimidin-1-yl)acetamide], in that order: greater than 100 nM, 84.3% and 95.6%.
Take `Cn1c(=O)c2c(cnn2CC(=O)Nc2nc(-c3cc(F)c(OCC(C)(C)C)c(F)c3)cs2)n(C)c1=O` [Example 78, N-{4-[4-(2,2-Dimethylpropoxy)-3,5-difluorophenyl]-1,3-thiazol-2-yl}-2-(4,6-dimethyl-5,7-dioxo-4,5,6,7-tetrahydro-1H-pyrazolo[4,3-d]pyrimidin-1-yl)acetamide]: the IC50 is less than 50 nM. The inhibition at 1 µM (1.0 μM test compound) was 100%. Moreover, for the setting “10.0 μM test compound”, the inhibition at 10 µM stood at 99.7%.
For `Cn1c(=O)c2c(cnn2CC(=O)Nc2nc(-c3cc(Cl)c(OCC(C)(C)C)c(Cl)c3)cs2)n(C)c1=O` [Example 79, N-{4-[3,5-Dichloro-4-(2,2-dimethylpropoxy)phenyl]-1,3-thiazol-2-yl}-2-(4,6-dimethyl-5,7-dioxo-4,5,6,7-tetrahydro-1H-pyrazolo[4,3-d]pyrimidin-1-yl)acetamide], in that order: less than 50 nM, 100% and 100%.
On the same counts, the results for `Cn1c(=O)c2c(cnn2CC(=O)Nc2nc(-c3cc(F)c(OCC(C)(C)C)c(Cl)c3)cs2)n(C)c1=O` [Example 80, N-{4-[3-Chloro-4-(2,2-dimethylpropoxy)-5-fluorophenyl]-1,3-thiazol-2-yl}-2-(4,6-dimethyl-5,7-dioxo-4,5,6,7-tetrahydro-1H-pyrazolo[4,3-d]pyrimidin-1-yl)acetamide] are less than 50 nM, 100% and 100%.
With `Cn1c(=O)c2c(cnn2CC(=O)Nc2nc(-c3cc(F)c(OCC4CCC4)c(F)c3)cs2)n(C)c1=O` [Example 81, N-{4-[4-(Cyclobutylmethoxy)-3,5-difluorophenyl]-1,3-thiazol-2-yl}-2-(4,6-dimethyl-5,7-dioxo-4,5,6,7-tetrahydro-1H-pyrazolo[4,3-d]pyrimidin-1-yl)acetamide], the IC50 is less than 50 nM. Besides, the inhibition at 1 µM (1.0 μM test compound) came to 94%. Moreover, the inhibition at 10 µM (10.0 μM test compound) stood at 100%.
As for `Cc1nn(CC(=O)Nc2nc(-c3cc(F)c(OCC(C)(C)C)c(F)c3)cs2)c2c(=O)n(C)c(=O)n(C)c12` [Example 82, N-[4-(3,5-Difluoro-4-(2,2-dimethylpropoxy)phenyl)-1,3-thiazol-2-yl]-2-(3,4,6-trimethyl-5,7-dioxo-4,5,6,7-tetrahydro-1H-pyrazolo[4,3-d]pyrimidin-1-yl)acetamide], the IC50 is 50 to 100 nM. Moreover, the inhibition at 1 µM (1.0 μM test compound) was found to be 92.8%. For the same molecule, the inhibition at 10 µM (10.0 μM test compound) is 99%.
For the molecule `Cc1nn(CC(=O)Nc2nc(-c3cc(Cl)c(OCC(C)(C)C)c(Cl)c3)cs2)c2c(=O)n(C)c(=O)n(C)c12` [Example 83, N-[4-(3,5-Dichloro-4-(2,2-dimethylpropoxy)phenyl)-1,3-thiazol-2-yl]-2-(3,4,6-trimethyl-5,7-dioxo-4,5,6,7-tetrahydro-1H-pyrazolo[4,3-d]pyrimidin-1-yl)acetamide], the IC50 was less than 50 nM. For the same molecule, the inhibition at 1 µM (1.0 μM test compound) is 75.6%. For the same molecule, the inhibition at 10 µM (10.0 μM test compound) is 95%.
With `Cn1c(=O)c2c(cnn2CC(=O)Nc2cc(-c3ccc(Br)cc3)on2)n(C)c1=O` [Example 84, N-[5-(4-Bromophenyl)isoxazol-3-yl]-2-(4,6-dimethyl-5,7-dioxo-4,5,6,7,-tetrahydro-1H-pyrazolo[4,3-d]pyrimidin-1-yl)acetamide], the inhibition at 1 µM (1.0 μM test compound) stood at 17.2%. For the same molecule, where the note is “10.0 μM test compound”, the inhibition at 10 µM stood at 83.9%.
On the same counts, the results for `Cn1nc2c(c1CC(=O)Nc1nc(-c3ccc(C(F)(F)F)c(F)c3)c[nH]1)c(=O)n(C)c(=O)n2C` [Example 85, N-{4-[3-Fluoro-4-(trifluoromethyl)phenyl]-1H-imidazol-2-yl]-2-(2,5,7-trimethyl-4,6-dioxo-4,5,6,7-tetrahydro-2H-pyrazolo[3,4-d]pyrimidin-3-yl)acetamide] are 44.1% and 78.2%.
Turning to “N-{4-[3,5-Dichloro-4-isobutoxyphenyl]-1,3-thiazol-2-yl}-2-(4,6-dimethyl-5,7-dioxo-4,5,6,7-tetrahydro-1H-pyrazolo[4,3-d]pyrimidin-1-yl)acetamide [Example 77]”, the IC50 fell in the range of 50 to 100 nM. In addition, under “1.0 μM test compound”, the “Percentage inhibition at 1.0 μM” value is 89.48%. Besides, the “Percentage inhibition at 10.0 μM” value (10.0 μM test compound) came out at 99.58%.

(Values after patent US9000159B2 (Glenmark Pharmaceuticals, S.A., priority 2009, dated 2015).)
